Experimental data: patent US10681909B2, “Herbicidal triazoles” (FMC Corporation, priority 2014, dated 2020)

How the values were obtained:
Settings in all cases: scale 0 to 100
[1] = system: corn; test: Test E preemergence; type: in vivo, Zea mays
Text: (§1) Seeds of plant species selected from corn (Zea mays), soybean (Glycine max), lambsquarters (Chenopodium album), poinsettia, wild (wild poinsettia, Euphorbia heterophylla), pigweed, palmer (palmer pigweed, Amaranthus palmeri), waterhemp (common waterhemp, Amaranthus rudis), surinam grass (Brachiaria decumbens), crabgrass, large (large crabgrass, Digitaria sanguinalis), crabgrass, Brazilian (Brazilian crabgrass, Digitaria horizontalis), panicum, fall (fall panicum, Panicum dichotomiflorum), foxtail, giant (giant foxtail, Setaria faberii), foxtail, green (green foxtail, Setaria viridis), goosegrass (Eleusine indica), johnsongrass (Sorghum halepense), ragweed (common ragweed, Ambrosia elatior), barnyardgrass (Echinochloa crus-galli), sandbur (southern sandbur, Cenchrus echinatus), arrowleaf sida (Sida rhombifolia), ryegrass, Italian (Italian ryegrass, Lolium multiflorum), dayflower, VA (Virginia dayflower, Commelina virginica), field bindweed (Convolvulus arvensis), cocklebur (common cocklebur, Xanthium strumarium), morningglory (Ipomoea coccinea), nightshade (eastern black nightshade, Solanum ptycanthum), kochia (Kochia scoparia), nutsedge, yellow (yellow nutsedge, Cyperus esculentus), smartweed (ladysthumb smartweed, Polygonum persicaria), velvetleaf (Abutilon theophrasti), horseweed (Conyza canadensis), and beggarticks (hairy beggarticks, Bidens pilosa), were planted into a silt loam soil and treated preemergence with test chemicals formulated in a non-phytotoxic solvent mixture which included a surfactant.
(§2) At the same time, plants from these crop and weed species and also waterhemp_RES1, (ALS & Triazine resistant common waterhemp, Amaranthus rudis), and waterhemp_RES2, (ALS & HPPD resistant common waterhemp, Amaranthus rudis) were planted in pots containing Sunshine Redi-Earth® planting medium comprising spaghnum peat moss, vermiculite, starter nutrients and dolomitic limestone were treated with postemergence applications of test chemicals formulated in the same manner. Plants ranged in height from 2 to 18 cm for postemergence treatments (1- to 4-leaf stage). Treated plants and controls were maintained in a greenhouse for 14 to 21 d, after which time all species were compared to controls and visually evaluated. Plant response ratings, summarized in Table E, are based on a scale of 0 to 100 where 0 is no effect and 100 is complete control. A dash (-) response means no test result.

[2] = system: lambsquarters; test: Test E preemergence; type: in vivo, Chenopodium album
Text: as §1, §2

[3] = system: poinsettia, wild; test: Test E preemergence; type: in vivo, Euphorbia heterophylla
Text: as §1, §2

[4] = system: crabgrass, large; test: Test E preemergence; type: in vivo, Digitaria sanguinalis
Text: as §1, §2

[5] = system: foxtail, green; test: Test E preemergence; type: in vivo, Setaria viridis
Text: as §1, §2

[6] = system: johnsongrass; test: Test E preemergence; type: in vivo, Sorghum halepense
Text: as §1, §2

[7] = system: sandbur; test: Test E preemergence; type: in vivo, Cenchrus echinatus
Text: as §1, §2

[8] = system: dayflower, VA; test: Test E preemergence; type: in vivo, Commelina virginica
Text: as §1, §2

[9] = system: field bindweed; test: Test E preemergence; type: in vivo, Convolvulus arvensis
Text: as §1, §2

[10] = system: nutsedge, yellow; test: Test E preemergence; type: in vivo, Cyperus esculentus
Text: as §1, §2

[11] = system: velvetleaf; test: Test E preemergence; type: in vivo, Abutilon theophrasti
Text: as §1, §2

[12] = system: waterhemp_RES1 (ALS & Triazine resistant common waterhemp); test: Test E postemergence; type: in vivo, Amaranthus rudis
Text: as §1, §2

[13] = system: waterhemp_RES2 (ALS & HPPD resistant common waterhemp); test: Test E postemergence; type: in vivo, Amaranthus rudis
Text: as §1, §2

[14] = system: waterhemp; test: Test E postemergence; type: in vivo, Amaranthus rudis
Text: as §1, §2

[15] = system: sandbur; test: Test E postemergence; type: in vivo, Cenchrus echinatus
Text: as §1, §2

[16] = system: arrowleaf sida; test: Test E postemergence; type: in vivo, Sida rhombifolia
Text: as §1, §2

[17] = system: ryegrass, Italian; test: Test E postemergence; type: in vivo, Lolium multiflorum
Text: as §1, §2

[18] = system: field bindweed; test: Test E postemergence; type: in vivo, Convolvulus arvensis
Text: as §1, §2

[19] = system: beggarticks; test: Test E postemergence; type: in vivo, Bidens pilosa
Text: as §1, §2

## CCc1nc(-c2ccc(C(F)(F)F)cc2)nn1Cc1ccnc(C(F)(F)F)c1 [Compound 1, 4-[[5-ethyl-3-[4-(trifluoromethyl)phenyl]-1H-1,2,4-triazol-1-yl]methyl]-2-(trifluoromethyl)pyridine]
[1]; 16 g ai/ha
  Plant response rating: 0
[1]; 31 g ai/ha
  Plant response rating: 0
[1]; 62 g ai/ha
  Plant response rating: 10
[1]; 125 g ai/ha
  Plant response rating: 25
[1]; 250 g ai/ha
  Plant response rating: 35
[2]; 16 g ai/ha
  Plant response rating: 10
[2]; 31 g ai/ha
  Plant response rating: 65
[2]; 62 g ai/ha
  Plant response rating: 90
[2]; 125 g ai/ha
  Plant response rating: 95
[2]; 250 g ai/ha
  Plant response rating: 95
[3]; 16 g ai/ha
  Plant response rating: 10
[3]; 31 g ai/ha
  Plant response rating: 30
[3]; 62 g ai/ha
  Plant response rating: 40
[3]; 125 g ai/ha
  Plant response rating: 40
[3]; 250 g ai/ha
  Plant response rating: 50
[4]; 16 g ai/ha
  Plant response rating: 60
[4]; 31 g ai/ha
  Plant response rating: 75
[4]; 62 g ai/ha
  Plant response rating: 80
[4]; 125 g ai/ha
  Plant response rating: 95
[4]; 250 g ai/ha
  Plant response rating: 100
[5]; 16 g ai/ha
  Plant response rating: 20
[5]; 31 g ai/ha
  Plant response rating: 50
[5]; 62 g ai/ha
  Plant response rating: 50
[5]; 125 g ai/ha
  Plant response rating: 80
[5]; 250 g ai/ha
  Plant response rating: 100
[6]; 16 g ai/ha
  Plant response rating: 10
[6]; 31 g ai/ha
  Plant response rating: 15
[6]; 62 g ai/ha
  Plant response rating: 40
[6]; 125 g ai/ha
  Plant response rating: 50
[6]; 250 g ai/ha
  Plant response rating: 60
[7]; 16 g ai/ha
  Plant response rating: 0
[7]; 31 g ai/ha
  Plant response rating: 10
[7]; 62 g ai/ha
  Plant response rating: 20
[7]; 125 g ai/ha
  Plant response rating: 40
[7]; 250 g ai/ha
  Plant response rating: 50
[8]; 16 g ai/ha
  Plant response rating: 5
[8]; 31 g ai/ha
  Plant response rating: 15
[8]; 62 g ai/ha
  Plant response rating: 25
[8]; 125 g ai/ha
  Plant response rating: 65
[8]; 250 g ai/ha
  Plant response rating: 80
[9]; 16 g ai/ha
  Plant response rating: 0
[9]; 31 g ai/ha
  Plant response rating: 10
[9]; 62 g ai/ha
  Plant response rating: 30
[9]; 125 g ai/ha
  Plant response rating: 40
[9]; 250 g ai/ha
  Plant response rating: 50
[10]; 16 g ai/ha
  Plant response rating: 0
[10]; 31 g ai/ha
  Plant response rating: 0
[10]; 62 g ai/ha
  Plant response rating: 0
[10]; 125 g ai/ha
  Plant response rating: 0
[10]; 250 g ai/ha
  Plant response rating: 10
[11]; 16 g ai/ha
  Plant response rating: 0
[11]; 31 g ai/ha
  Plant response rating: 10
[11]; 62 g ai/ha
  Plant response rating: 10
[11]; 125 g ai/ha
  Plant response rating: 30
[11]; 250 g ai/ha
  Plant response rating: 50
[12]; 16 g ai/ha
  Plant response rating: 90
[12]; 31 g ai/ha
  Plant response rating: 90
[12]; 62 g ai/ha
  Plant response rating: 90
[12]; 125 g ai/ha
  Plant response rating: 95
[12]; 250 g ai/ha
  Plant response rating: 95
[13]; 16 g ai/ha
  Plant response rating: 80
[13]; 31 g ai/ha
  Plant response rating: 85
[13]; 62 g ai/ha
  Plant response rating: 85
[13]; 125 g ai/ha
  Plant response rating: 90
[13]; 250 g ai/ha
  Plant response rating: 95
[14]; 16 g ai/ha
  Plant response rating: 65
[14]; 31 g ai/ha
  Plant response rating: 80
[14]; 62 g ai/ha
  Plant response rating: 90
[14]; 125 g ai/ha
  Plant response rating: 95
[14]; 250 g ai/ha
  Plant response rating: 95
[15]; 16 g ai/ha
  Plant response rating: 10
[15]; 31 g ai/ha
  Plant response rating: 15
[15]; 62 g ai/ha
  Plant response rating: 15
[15]; 125 g ai/ha
  Plant response rating: 20
[15]; 250 g ai/ha
  Plant response rating: 20
[16]; 16 g ai/ha
  Plant response rating: 30
[16]; 31 g ai/ha
  Plant response rating: 40
[16]; 62 g ai/ha
  Plant response rating: 50
[16]; 125 g ai/ha
  Plant response rating: 70
[16]; 250 g ai/ha
  Plant response rating: 85
[17]; 16 g ai/ha
  Plant response rating: 0
[17]; 31 g ai/ha
  Plant response rating: 10
[17]; 62 g ai/ha
  Plant response rating: 10
[17]; 125 g ai/ha
  Plant response rating: 15
[17]; 250 g ai/ha
  Plant response rating: 25
[18]; 16 g ai/ha
  Plant response rating: 40
[18]; 31 g ai/ha
  Plant response rating: 55
[18]; 62 g ai/ha
  Plant response rating: 65
[18]; 125 g ai/ha
  Plant response rating: 65
[18]; 250 g ai/ha
  Plant response rating: 75
[19]; 16 g ai/ha
  Plant response rating: 20
[19]; 31 g ai/ha
  Plant response rating: 40
[19]; 62 g ai/ha
  Plant response rating: 40
[19]; 125 g ai/ha
  Plant response rating: 50
[19]; 250 g ai/ha
  Plant response rating: 60

## CCOc1nc(-c2ccc(F)cc2)nn1Cc1ccnc(C(F)(F)F)c1 [Compound 8, 4-[[5-ethoxy-3-(4-fluorophenyl)-1H-1,2,4-triazol-1-yl]methyl]-2-(trifluoromethyl)pyridine]
[1]; 62 g ai/ha
  Plant response rating: 25
[1]; 125 g ai/ha
  Plant response rating: 65
[2]; 62 g ai/ha
  Plant response rating: 100
[2]; 125 g ai/ha
  Plant response rating: 100
[3]; 62 g ai/ha
  Plant response rating: 70
[3]; 125 g ai/ha
  Plant response rating: 95
[4]; 62 g ai/ha
  Plant response rating: 100
[4]; 125 g ai/ha
  Plant response rating: 100
[5]; 62 g ai/ha
  Plant response rating: 100
[5]; 125 g ai/ha
  Plant response rating: 100
[6]; 62 g ai/ha
  Plant response rating: 65
[6]; 125 g ai/ha
  Plant response rating: 100
[7]; 62 g ai/ha
  Plant response rating: 60
[7]; 125 g ai/ha
  Plant response rating: 98
[8]; 62 g ai/ha
  Plant response rating: 65
[8]; 125 g ai/ha
  Plant response rating: 95
[9]; 62 g ai/ha
  Plant response rating: 70
[9]; 125 g ai/ha
  Plant response rating: 95
[10]; 62 g ai/ha
  Plant response rating: 25
[10]; 125 g ai/ha
  Plant response rating: 35
[11]; 62 g ai/ha
  Plant response rating: 50
[11]; 125 g ai/ha
  Plant response rating: 98

## CCCc1nc(-c2ccc(F)cc2)nn1Cc1ccnc(C(F)(F)F)c1 [Compound 6, 4-[[3-(4-fluorophenyl)-5-propyl-1H-1,2,4-triazol-1-yl]methyl]-2-(trifluoromethyl)pyridine]
[1]; 16 g ai/ha
  Plant response rating: 0
[1]; 31 g ai/ha
  Plant response rating: 15
[1]; 62 g ai/ha
  Plant response rating: 30
[1]; 125 g ai/ha
  Plant response rating: 50
[1]; 250 g ai/ha
  Plant response rating: 60
[2]; 31 g ai/ha
  Plant response rating: 70
[2]; 62 g ai/ha
  Plant response rating: 100
[2]; 125 g ai/ha
  Plant response rating: 100
[2]; 250 g ai/ha
  Plant response rating: 100
[3]; 16 g ai/ha
  Plant response rating: 15
[3]; 31 g ai/ha
  Plant response rating: 30
[3]; 62 g ai/ha
  Plant response rating: 50
[3]; 125 g ai/ha
  Plant response rating: 50
[3]; 250 g ai/ha
  Plant response rating: 95
[4]; 62 g ai/ha
  Plant response rating: 90
[4]; 125 g ai/ha
  Plant response rating: 100
[4]; 250 g ai/ha
  Plant response rating: 100
[5]; 62 g ai/ha
  Plant response rating: 70
[5]; 125 g ai/ha
  Plant response rating: 80
[5]; 250 g ai/ha
  Plant response rating: 100
[6]; 31 g ai/ha
  Plant response rating: 40
[6]; 62 g ai/ha
  Plant response rating: 50
[6]; 125 g ai/ha
  Plant response rating: 80
[6]; 250 g ai/ha
  Plant response rating: 100
[7]; 16 g ai/ha
  Plant response rating: 10
[7]; 31 g ai/ha
  Plant response rating: 40
[7]; 62 g ai/ha
  Plant response rating: 50
[7]; 125 g ai/ha
  Plant response rating: 70
[7]; 250 g ai/ha
  Plant response rating: 80
[8]; 16 g ai/ha
  Plant response rating: 10
[8]; 31 g ai/ha
  Plant response rating: 60
[8]; 62 g ai/ha
  Plant response rating: 70
[8]; 125 g ai/ha
  Plant response rating: 80
[8]; 250 g ai/ha
  Plant response rating: 90
[9]; 16 g ai/ha
  Plant response rating: 10
[9]; 31 g ai/ha
  Plant response rating: 10
[9]; 62 g ai/ha
  Plant response rating: 30
[9]; 125 g ai/ha
  Plant response rating: 50
[9]; 250 g ai/ha
  Plant response rating: 70
[10]; 16 g ai/ha
  Plant response rating: 0
[10]; 31 g ai/ha
  Plant response rating: 0
[10]; 62 g ai/ha
  Plant response rating: 15
[10]; 125 g ai/ha
  Plant response rating: 30
[10]; 250 g ai/ha
  Plant response rating: 40
[11]; 16 g ai/ha
  Plant response rating: 0
[11]; 31 g ai/ha
  Plant response rating: 30
[11]; 62 g ai/ha
  Plant response rating: 40
[11]; 125 g ai/ha
  Plant response rating: 50
[11]; 250 g ai/ha
  Plant response rating: 70
